Measurements from PMC10539733, “Fluorine NMR study of proline-rich sequences using fluoroprolines” (Magnetic resonance, 2021).
Where “and” joins values, the source holds several entries; their conditions need not be identical. Equal entries are not always repeated. Where two headings read alike, the source gives them in different places. Values belong to the molecule of their own block, whether it stands above or below them. Square brackets hold non-standard residues; d marks the D form. Ends that are not written are not given here. Peptide text beside a SMILES is read from it. Pro(trans-4-F) = O=C(O)[C@@H]1C[C@@H](F)CN1; Pro(cis-4-F) = O=C(O)[C@@H]1C[C@H](F)CN1

What was measured:
Vinexin β SH3.3 domain [1] = biological target: T1, Vinexin β SH3.3 domain (Homo sapiens, UniProt O60504); test: 19F line width (apparent transverse relaxation) analysis of binding kinetics during titration; conditions: fast exchange approximation, 298 K
T1 construct: The Vinexin β SH3.3 was obtained using recombinant expression of a glutathione-S-transferase (GST) fusion protein; GST (N, cleaved yes); made in house; host or cells: Escherichia coli (pGEX plasmids)
T1 sequence (O60504 612-671 limits assumed): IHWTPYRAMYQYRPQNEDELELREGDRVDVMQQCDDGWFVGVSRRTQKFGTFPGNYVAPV
Description: The exchange line broadening during the titration experiment also reports on the binding kinetics. Thus, the major ^19 F peaks were fitted using a Lorentzian line shape and the line widths obtained in this way provide an estimate of the apparent transverse relaxation constant R2‡ as a function of peptide concentration (Fig. 7b and c), which can be used to derive the binding kinetics. […]
Processing of 1D ^19 F spectra and quantification were performed using an open-source Python package dedicated to Fourier spectroscopies called “Spectrometry Processing Innovative Kernel” (SPIKE) (Chiron et al., 2016). […] Line fitting was done using the least-square minimizer of the Scipy optimize toolbox to find the optimal set of the signal parameters minimizing the squared differences between the experimental and calculated spectra. […]
Titrations were performed by successive addition of stock peptide solutions to a sample of SH3 protein at 314 µM in a 3 mm NMR tube. […] For every titration point, a 1D ^19 F spectrum and a ^1 H– ^15 N HSQC were recorded at 298K on the same spectrometer, taking advantage of the QCI-F probe. The ^1 H– ^15 N HSQC was recorded using the standard pulse sequence and a 3-9-19 WATERGATE water suppression element. The 200 points were recorded in the indirect dimension to achieve a final resolution of 7.0 and 18.8 Hz per point in the acquisition and indirect dimensions, respectively. […]

Vinexin β SH3.3 domain [2] = biological target: T1, Vinexin β SH3.3 domain; test: NMR titration, 1H-15N HSQC chemical shift perturbations of 15N-labelled SH3 domain; type: binding
Description: In order to measure the binding affinities between the Vinexin β SH3.3 domain and the model peptides, a titration experiment was performed where increasing amounts of peptide were added to a solution of ^15 N-labelled SH3 domain. Apart from MpRS and MpSR peptides, a titration was also performed with a non-fluorinated reference peptide. Just as for most SH3–PRM interaction studies, a gradual frequency shift of a subset of ^1 H– ^15 N correlation peaks in the ^1 H– ^15 N HSQC spectra was observed, indicative of fast exchange between bound and free states of the protein (Fig. 6a). Under this exchange regime, the chemical shifts provide an accurate measure of the bound protein fraction, enabling the determination of an equilibrium dissociation constant Kd (vide infra).
The MpRS and MpSR peptides were produced by solid-phase synthesis using fluorenylmethyloxycarbonyl (Fmoc) amino acids using a model 431A peptide synthesizer from Applied Biosystems (Foster City, CA, USA). Fmoc-protected (4 R )- and (4 S )-FPro amino acids were purchased from Bachem SA. Peptides were purified by reversed-phase HPLC and checked by electrospray ionization and time of flight mass spectrometry (ESI-TOF). The Vinexin β SH3.3 was obtained using recombinant expression of a glutathione-S-transferase (GST) fusion protein in Escherichia coli using pGEX plasmids (Lalevée et al., 2010). After thrombin cleavage, the protein was purified using size-exclusion chromatography and eluted with phosphate buffer (40 mM phosphate, NaCl 100 mM, DTT 2 mM, pH 7). Before titration experiments, a dialysis was performed using 1 and 3 kDa cut-off membrane for the peptide and the protein, respectively, and a common dialysis bath containing the buffer used in interaction experiments. Protein concentrations were determined by measuring the optical density (OD) at 280 nm (molar absorption coefficient 11 460 M ^-1 cm ^-1 ). Peptide concentrations were measured by ^1 H NMR by comparing the integrals of peptide resonances with those of tryptophan of known concentration in a sample containing small amounts (10–30 µM ) of both compounds in D 2 O as described (Kohler et al., 2015). For assignments, lyophilized powder of MpRS and MpSR peptides were dissolved in 170 µL of D 2 O for a final concentration of 1 mM in 3 mm tubes.
Titrations were performed by successive addition of stock peptide solutions to a sample of SH3 protein at 314 µM in a 3 mm NMR tube. In order to reduce the dilution of the initial protein solution and keep the aliquot volumes within values compatible with low pipetting errors (1 to 3 µL ), initial aliquots were added using stock solutions diluted by a factor of 2. The concentrations of the stock solutions were 5.1 and 5.7 mM for MpSR and MpRS, respectively. For every titration point, a 1D ^19 F spectrum and a ^1 H– ^15 N HSQC were recorded at 298K on the same spectrometer, taking advantage of the QCI-F probe. The ^1 H– ^15 N HSQC was recorded using the standard pulse sequence and a 3-9-19 WATERGATE water suppression element. The 200 points were recorded in the indirect dimension to achieve a final resolution of 7.0 and 18.8 Hz per point in the acquisition and indirect dimensions, respectively. The relaxation delay was set to 1 s resulting in a total acquisition time of 16 min. The 1D ^19 F spectra were recorded with a spectral width of 22.522 kHz. The number of scans was adapted to achieve a sufficient signal-to-noise ratio for each concentration of peptide. For the first titration point, at a peptide concentration of 50 µM , 1600 scans were recorded for a total acquisition time of 1 h and 6 min, while 250 scans (10 min acquisition time) were used for the large peptide concentrations.
The composite chemical shift was calculated using […], where ΔδN and ΔδH are the ^15 N and proton chemical shift differences measured between the free protein and the protein in the presence of a given amount of peptide. […]

[3] = biological target: T2, Vinexin β SH3.3 domain (third SH3 domain of the Vinexin β protein) (UniProt O60504 612-671); test: NMR titration; same kind of titration, 298 K; only the 1H-15N chemical shift perturbations of the SH3 domain fitted, 1:1 model; conditions: both partners purified
T2 construct: Vinexin β, third SH3 domain (SH3.3); 15N-labelled for the titrations; source: E. coli, GST fusion protein (pGEX plasmids), thrombin cleavage, purified (size-exclusion chromatography)
T2 sequence (looked up): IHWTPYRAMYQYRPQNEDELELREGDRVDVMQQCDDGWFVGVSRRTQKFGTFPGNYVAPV

[4] = biological target: T2, Vinexin β SH3.3 domain (third SH3 …); test: NMR titration; peptide stock added stepwise to 15N-labelled SH3 at 314 µM in a 3 mm tube, 298 K; 19F shifts of the peptide and 1H/15N shifts of the SH3 fitted simultaneously; 1:1 and 1:2 models compared; conditions: both partners purified
[5] = biological target: T2, Vinexin β SH3.3 domain (third SH3 …); test: NMR titration; 19F line widths (apparent R2) of the peptide against peptide concentration during the titration, fast-exchange approximation; kon fitted independently for each 19F signal, Kd taken from the shift fit; conditions: both partners purified

Molecule: CC(C)[C@H](NC(=O)[C@H](CCCNC(=N)N)NC(=O)[C@@H]1CCCN1C(=O)[C@@H]1CCCN1C(=O)[C@@H]1CCCN1C(=O)[C@@H]1CCCN1C(=O)[C@@H]1CCCN1C(=O)[C@H](CO)NC(=O)[C@@H]1CCCN1C(=O)[C@@H]1CCCN1C(=O)[C@@H]1CCCN1C(=O)[C@@H]1CCCN1C(=O)[C@@H]1CCCN1)C(=O)N[C@@H](Cc1ccc(O)cc1)C(=O)N[C@@H](CCCCN)C(=O)O [non-fluorinated peptide] (H-PPPPPSPPPPPRVYK-OH; N-terminus and C-terminus assumed)
1H-15N composite chemical shift perturbation, Asn 15 (Vinexin β SH3.3 domain [2]; Vinexin β residue Asn 15): 1.093
1H-15N composite chemical shift perturbation, Asp 17 (Vinexin β SH3.3 domain [2]; Vinexin β residue Asp 17): 2.276
1H-15N composite chemical shift perturbation, Gln 14 (Vinexin β SH3.3 domain [2]; Vinexin β residue Gln 14): 1.949
1H-15N composite chemical shift perturbation, Gly 49 (Vinexin β SH3.3 domain [2]; Vinexin β residue Gly 49): 0.812
1H-15N composite chemical shift perturbation, Leu 21 (Vinexin β SH3.3 domain [2]; Vinexin β residue Leu 21): 0.988
1H-15N composite chemical shift perturbation, Thr 50 (Vinexin β SH3.3 domain [2]; Vinexin β residue Thr 50): 1.881
1H-15N composite chemical shift perturbation, Trp 37 (Vinexin β SH3.3 domain [2]; Vinexin β residue Trp 37): 2.011
1H-15N composite chemical shift perturbation, Val 39 (Vinexin β SH3.3 domain [2]; Vinexin β residue Val 39): 3.214
1H-15N composite chemical shift perturbation, Val 56 (Vinexin β SH3.3 domain [2]; Vinexin β residue Val 56): 1.319

B1: non-fluorinated reference peptide (peptide)
chain: PPPPPSPPPPPRVYK
modifications: Synthetic RAR-gamma-based peptide. Sequence converted from the three-letter residue list in Table 1 (Pro1-5, Ser6, Pro7-11, Arg12-Val13-Tyr14-Lys15), with plain proline at positions 4 and 8. The …
Kd [3]: 74 ± 25 µM

B2: MpRS peptide (peptide)
peptide: PPP[Pro(trans-4-F)]PSP[Pro(cis-4-F)]PPPRVYK
notes: P at 4 and 8 stand for fluoroprolines; source: synthetic peptide (Fmoc solid-phase synthesis, reversed-phase HPLC)
Kd [3]: 220 µM
Kd [4]: 273 ± 30 µM
stoichiometry N [4]: 1

Further lines, results first:

kon (Vinexin β SH3.3 domain [1]; from 19F line widths of (4 R )-FPro8 signal, read-out: association kinetics constant kon, (4 R )-FPro8 signal): 1.2e+08 M⁻¹ s⁻¹
kon (Vinexin β SH3.3 domain [1]; from 19F line widths of (4 S )-FPro4 signal, read-out: association kinetics constant kon, (4 S )-FPro4 signal): 9e+07 M⁻¹ s⁻¹
Molecule: CC(C)[C@H](NC(=O)[C@H](CCCNC(=N)N)NC(=O)[C@@H]1CCCN1C(=O)[C@@H]1CCCN1C(=O)[C@@H]1CCCN1C(=O)[C@@H]1C[C@@H](F)CN1C(=O)[C@@H]1CCCN1C(=O)[C@H](CO)NC(=O)[C@@H]1CCCN1C(=O)[C@@H]1C[C@H](F)CN1C(=O)[C@@H]1CCCN1C(=O)[C@@H]1CCCN1C(=O)[C@@H]1CCCN1)C(=O)N[C@@H](Cc1ccc(O)cc1)C(=O)N[C@@H](CCCCN)C(=O)O [MpSR] (H-PPP[Pro(cis-4-F)]PSP[Pro(trans-4-F)]PPPRVYK-OH)

Kd [3]: 75 µM
Kd [4]: 96 ± 30 µM
stoichiometry N [4]: 1
kon [5]: 9e+07 M⁻¹ s⁻¹ and 1.2e+08 M⁻¹ s⁻¹
B3: MpSR peptide (peptide)
peptide: PPP[Pro(cis-4-F)]PSP[Pro(trans-4-F)]PPPRVYK
notes: P at 4 and 8 stand for fluoroprolines; Two segments of five prolines separated by one serine, followed by RVYK; source: synthetic peptide (Fmoc solid-phase synthesis, reversed-phase HPLC)
